Experimental findings from patent US6329363A, “Cephalosporin antibiotics” (Eli Lilly and Company, priority 1998, dated 2001) are described below.

In brackets after ≈: the same amount, converted by molar mass. Where only a bound is given, the exact number is not on record here.

One experiment relates to S.aureus 174 C. The experiment is described as follows: MIC, in vitro activity vs. S.aureus 174 C. The experiment is classed as cell-based, Staphylococcus aureus. Details: unit not given beside the values. To be noted: Incubated at 37° C. overnight. As for the experimental part:
(§1) Table 2 summarizes the minimal inhibitory concentrations (MIC's) at which illustrative formula I compounds and cephalothin inhibit certain microorganisms associated with mastitis, such as Staphylococcus aureus 10092 (Newbould strain).
(§2) ^a Incubated at 37° C. overnight

Experiment [1] deals with Pasteurella haemolytica 128K (bovine). Description: MIC against Gram-negative organisms: Pasteurella haemolytica 128K (bovine). It is filed as cell-based. To be noted: Incubated at 37° C. overnight; unit assumed. On the procedure: (§3) The formula I compounds are also active against certain Gram-negative species.
as §2

Experiment [2] has as its system pasteurella multocida ATCC 12945. The experiment is described as follows: MIC against Gram-negative organisms: pasteurella multocida ATCC 12945. It is filed as cell-based. To be noted: Incubated at 37° C. overnight; unit assumed. On the procedure:
as §3, §2

The next experiment relates to Salmonella typhimurium. The experiment is described as follows: MIC against Gram-negative organisms: Salmonella typhimurium. The experiment is classed as cell-based. To be noted: Incubated at 37° C. overnight; unit assumed. As for the experimental part:
as §3, §2

The subject of experiment [3] is pasteurella multocida 10,102 (bovine). Description: MIC against Gram-negative organisms: pasteurella multocida 10,102 (bovine). It is filed as cell-based. To be noted: Incubated at 37° C. overnight; unit assumed. As for the experimental part: as §3, §2
Experiment [4] relates to Streptococcus uberis 150 L. The experiment is described as follows: MIC, in vitro activity vs. Streptococcus uberis 150 L. It is filed as cell-based. Details: unit not given beside the values. To be noted: Incubated at 37° C. overnight. On the procedure:
as §1, §2

For experiment [5], the system named is pasteurella multocida 108E (bovine). The experiment is described as follows: MIC against Gram-negative organisms: pasteurella multocida 108E (bovine). The experiment is classed as cell-based. To be noted: Incubated at 37° C. overnight; unit assumed. As for the experimental part:
as §3, §2

Experiment [6] concerns Pasteurella haemolytica 129R (bovine). The experiment is described as follows: MIC against Gram-negative organisms: Pasteurella haemolytica 129R (bovine). To be noted: Incubated at 37° C. overnight; unit assumed. The experiment is classed as cell-based. On the procedure:
as §3, §2

Experiment [7] has as its system Streptococcus uberis 166 L. Description: MIC, in vitro activity vs. Streptococcus uberis 166 L. To be noted: Incubated at 37° C. overnight. It is filed as cell-based. Details: unit not given beside the values. As for the experimental part: as §1, §2
For a further experiment, the system named is Streptococcus agalactiae. The experiment is described as follows: MIC, in vitro activity vs. Streptococcus agalactiae. The experiment is classed as cell-based. Details: unit not given here. To be noted: Incubated at 37° C. overnight. On the procedure:
as §1, §2

The subject of a further experiment is Escherichia coli. The experiment is described as follows: MIC against Gram-negative organisms: Escherichia coli. The experiment is classed as cell-based. To be noted: Incubated at 37° C. overnight; unit assumed. On the procedure: as §3, §2
The test system of experiment [8] is Staphylococcus aureus 10092 (Newbould). Description: Efficacy in induced Staphylococcus aureus mastitis model in lactating goats. It is filed as in vivo. To be noted: 8 halves per compound, 2 consecutive milkings 12 hours apart, approximately 25 mg/5 mL dose in peanut oil, from 36 hours post-challenge. From the text:
Sixteen lactating goats were selected based on the absence of Staphylococcus aureus in pre-challenge milk cultures. Maintenance ration was provided to the animals throughout the study. The goats were milked twice each day using a portable goat milker.
Milk samples were collected during the morning milking. One day prior to challenge, milk culture samples were collected from each half of the test animals to determine if there was a pre-existing infection. Additionally, a sample was collected from each half for Somatic Cell Count (SCC) determination. A milk culture sample and a sample for SCC were collected from each half 24 hours post-challenge and on Days +4 to +6, +8, +11, +13, and +15.
Udder scoring was performed during each milking wing table:
General health observations and body temperature were recorded once a day following milking during the challenge and treatment periods.
Milk samples were submitted for analysis for SCC using an electronic somatic cell counting system.
Milk culture samples were assayed for bacterial culture by plating 1.0 mL and 0.1 mL of the milk sample directly onto duplicate blood agar plates. Additionally, dilutions 10^-1 of the milk sample were plated. Plates were incubated overnight at 37° C.
Staphylococcus aureus 10092 (Newbould) was used as the challenge strain. The challenge culture was grown in Tryptic Soy Broth (TSB) from a lyovial stock overnight (16 hours) at 37° C. TSB (100 mL) was inoculated with 1 mL of the overnight culture and incubated at 37° C. with shaking for 4 hours. The culture was centrifuged at 9000 rpm for 10 minutes at 10° C.; supernatant was removed and the pellet was resuspended in phosphate buffered saline (PBS). Optimum O.D. reading at 650 nm was approximately 0.035. A 10-fold dilution series was prepared with saline to determine the CFU/mL, plating 10^-5, 10^-6, and 10^-7 dilutions onto duplicate blood agar plates. The 10^-7 dilution (approximately 10 CFU/mL) was used for the challenge material, yielding a challenge of 50 CFU/half with a 5-mL infusion.
Sixteen goats were used for the trial. During a one day pre-challenge period, milk samples were collected and temperatures were taken during the morning milking. Milk/udder evaluations were documented during the morning and afternoon milkings.
Staphylococcus aureus 10092 was infused into both halves in each of the goats. The goats were challenged following the morning milking and milked in the afternoon on the day of challenge. The challenge inoculum volume was 5 mL/half containing approximately 50 CFU S. aureus.
For the 24 hr post-challenge period milk samples were collected during the morning milking, and milk/udder evaluations made during the morning and afternoon milking.
Treatment was started at 36 hours post-challenge. Milk samples were collected for culture and SCC 24 hours post-challenge, prior to the morning milking, and the treatment period started following the afternoon milking.
Eight halves (4 goats) each were treated for 2 consecutive milkings 12 hours apart, following milking. Each designated compound was formulated in peanut oil with […] of compound per 5 g of formulation to give approximately 25 mg/5 mL dose.
Following treatment, the goats were milked and observed for 15 days. Milk samples were collected on Days +4 to +6, +8, +11, +13, and +15 to determine if the infection had cleared.
Establishment of mastitis was determined by bacterial culturing, severity of udder scoring, somatic cell count results, and body temperature.
On Days +2 to +6, milk samples were collected for a calorimetric assay to determine whether the antibiotic was still present in the milk.

For another experiment, the system named is S.aureus F1C. Description: MIC, in vitro activity vs. S.aureus F1C. The experiment is classed as cell-based, Staphylococcus aureus. Also on record: unit not given beside the values. To be noted: Incubated at 37° C. overnight. On the procedure: as §1, §2
Experiment [9] concerns Staphylococcus aureus 10092 (Newbould strain). The experiment is described as follows: MIC, in vitro activity vs. S.aureus 10092. It is filed as cell-based. Details: unit not given beside the values. To be noted: Incubated at 37° C. overnight. As for the experimental part: as §1, §2
The test system of experiment [10] is Pasteurella haemolytica 114F (bovine). The experiment is described as follows: MIC against Gram-negative organisms: Pasteurella haemolytica 114F (bovine). It is filed as cell-based. To be noted: Incubated at 37° C. overnight; unit assumed. As for the experimental part:
as §3, §2

Experiment [11] has as its system Strepcococcus dysgalactiae. Description: MIC, in vitro activity vs. Streptococcus dysgalactiae. It is filed as cell-based. Details: unit not given here. To be noted: Incubated at 37° C. overnight. On the procedure: as §1, §2
The test system of another experiment is S.aureus ATCC 29213. Description: MIC, in vitro activity vs. S.aureus ATCC 29213. The experiment is classed as cell-based, Staphylococcus aureus. Also on record: unit not given beside the values. To be noted: Incubated at 37° C. overnight. On the procedure: as §1, §2
In experiment [12] the test system is pasteurella multocida 1051 (swine). Description: MIC against Gram-negative organisms: pasteurella multocida 1051 (swine). It is filed as cell-based. To be noted: Incubated at 37° C. overnight; unit assumed. As for the experimental part: as §3, §2
The test system of another experiment is Mastitis in Cows. The experiment is described as follows: Efficacy in mastitis in lactating cows. It is filed as in vivo. To be noted: three trials, 450 mmoles/quarter/dose for two doses. As for the experimental part:
Compound 1 was administered to lactating cows in three trials using methods analogous to those used in the goat model described in Example 13. A total of 43 quarters were treated with Compound 1, and 36 quarters were treated with cephapirin (Cefa-Lak). Both compounds were administered at 450 mmoles/quarter/dose for two doses. Compound 1 effectively treated 27 out of 43 quarters for an overall cure rate of 63%, whereas cephapirin effectively treated 18 out of 36 quarters for an overall cure rate of only 50%.

Regarding `Cc1nnc(SCC2=C(C(=O)O)N3C(=O)[C@@H](NC(=O)COc4c(F)c(F)c(F)c(F)c4F)[C@H]3SC2)s1` [Compound 1], the “MIC vs. S.aureus 174 C” value against S.aureus 174 C was found to be 0.25. Moreover, the MIC, Pasteurella haemolytica 128K (bovine) in [1] was determined as 4 µg/mL (≈ 7.04 µM). This molecule also returned an MIC, pasteurella multocida ATCC 12945 in experiment [2] of 0.25 µg/mL (≈ 0.44 µM). In the experiment on Salmonella typhimurium, this molecule had an MIC, Salmonella typhimurium of no more than 128 µg/mL. The molecule further registered an MIC, pasteurella multocida 10,102 (bovine) in [3] of 0.25 µg/mL (≈ 0.44 µM). For the same molecule, in [4], the “MIC vs. Streptococcus uberis 150 L” value is 0.25. In addition, the MIC, pasteurella multocida 108E (bovine) in experiment [5] is 0.25 µg/mL (≈ 0.44 µM). In experiment [6], this molecule yielded an MIC, Pasteurella haemolytica 129R (bovine) of 4 µg/mL (≈ 7.04 µM). Besides, the “MIC vs. Streptococcus uberis 166 L” value in [7] is reported as 0.25. In addition, in the experiment with Streptococcus agalactiae, the “MIC vs. Streptococcus agalactiae” value came to 0.25. The molecule further yielded an MIC, Escherichia coli in the experiment on Escherichia coli of no more than 128 µg/mL. In experiment [8], the “% Bacteriologic Cures” value is given as 71%. The “MIC vs. S.aureus F1C” value against S.aureus F1C is given as 0.5. Further, the “MIC vs. S.aureus 10092” value in [9] came to 0.25. Moreover, the MIC, Pasteurella haemolytica 114F (bovine) in experiment [10] worked out at 8 µg/mL (≈ 14.1 µM). In addition, the “MIC vs. Strepcococcus dysgalactiae” value in experiment [11] is on record as 0.125. Also, the “MIC vs. S.aureus ATCC 29213” value with S.aureus ATCC 29213 worked out at 0.25. Further, the MIC, pasteurella multocida 1051 (swine) in experiment [12] turned out to be 0.25 µg/mL (≈ 0.44 µM). Besides, in the experiment on Mastitis in Cows, the overall cure rate was determined as 63% and the quarters effectively treated is listed as 27 out of 43.
